According to EP0101786A1, “Use of a benzoisothiazoline derivative for the manufacture of a medicament against thrombosis and platelet aggregation” (GREEN CROSS CORPORATION, priority 1982, dated 1984):

How the values were obtained:
[1] = tested on: platelet aggregation initiated by promoter ADP (platelet-rich plasma); assay: Inhibition of ADP-induced platelet aggregation (aggregometer, nephelometry); format: cell-based; conditions: 2 min; for inhibition at 10 µg/mL: final conc. 10 γ/ml (10.0 γ/ml); for inhibition at 3 µg/mL: final conc. 3.0 γ/ml
Procedure: The inhibitory activity of BIT (1) compounds against platelet aggregation initiated by promoter ADP was determined for various amounts of the BIT (1) compounds. […] Silicon-coated cuvettes on the Aggregometer were filled with 0.8 ml of diluted platelet-rich plasma (containing 300,000 to 400,000 platelets per cmm) and 0.1 ml of solutions of the BIT (1) compounds listed in Table 1 having different concentration (0.3 y/ml, 1.0 γ/ml and 3.0 y/ml as dissolved in 100% alcohol), as well as adenosine (20 y/ml and 100 y/ml) and aspirin (500 y/ml) were added. Following 2-minute incubation, ADP was added to give a final concentration of 10^-5 M. The final volume of each sample was 1 ml. The process of platelet aggregation was monitored with the recorder pen which traced aggregation curves.
The percent inhibition of aggregation was calculated by the following formula: [formula] wherein M represents light transmittance for maximum aggregation in 100 % ethanol (Control);
D represents light transmittance for maximum aggregation in the specific sample.

[2] = Acute toxicity test, oral, Litchfield-Wilcoxon method; conditions: mouse, in vivo, male ddy mice, suspension in distilled water with 0.5 % carboxymethyl cellulose
Procedure: A group of 10 male ddy mice each weighing […] were subject to an acute toxicity test with BIT (1) (R=n-C3H7, X-Cl) which was administered to the mice orally as suspensions in distilled water for injection that contained 0.5 % of carboxymethyl cellulose.

[3] = tested on: platelets (platelet-rich plasma, ADP-aggregated); assay: Acceleration of platelet disaggregation after ADP-induced maximum aggregation; format: cell-based; conditions: 5 minutes after addition, control about 12 %
Procedure: ADP was added to platelet-rich plasma as used in (1) above, and when maximum aggregation was reached, BIT (1) compound (R=n-C3H7, X-Cl) was added to check its ability to accelerate the disaggregation of platelets. In this experiment, the procedure of experiment (1) was repeated except that the BIT (1) was added after the aggregation of platelets occurred. To give final concentrations of 1.0 γ/ml, 3.0 y/ml and 6.0 y/ml as dissolved in 100 % ethanol, 0.1 ml of solutions containing 10 γ/ml, 30 γ/ml and 60 y/ml of BIT (1) were added after maximum platelet aggregation took place. As a control, 100 % ethanol was added instead of the BIT (1). The degree of disaggregation was determined by measuring the absorbance of the test samples 5 minuts after the addition of the BIT (1) as against the absorbance for maximum aggregation in that sample.

[4] = ADP 10^-5 M, 2-minute incubation

Compound: Nc1ncnc2c1ncn2[C@@H]1O[C@H](CO)[C@@H](O)[C@H]1O [Adenosine, reference compound]
- inhibition at 2 µg/mL ([1]; final conc. 2 γ/ml, ADP 10^-5 M, 2-minute incubation): 47%
- inhibition at 10 µg/mL [1, 4]: 62%

Compound: CC(=O)Oc1ccccc1C(=O)O [Aspirin, reference compound]
- inhibition at 50 µg/mL ([1]; read-out: Inhibition of platelet aggregation): 0%

Compound: O=c1[nH]sc2cc(Cl)ccc12 [BIT (R=H) (X=Cl)]
- inhibition at 10 µg/mL [1, 4]: 100%

Compound: CCCn1sc2cc(Cl)ccc2c1=O [BIT (R=n-C3H7) (X=Cl), 6-chloro-2-n-propyl-1,2-benzoisothiazolin-3-one]
- inhibition at 0.3 µg/mL ([1]; final conc. 0.3 γ/ml, ADP 10^-5 M, 2-minute incubation): 18%
- inhibition at 1 µg/mL ([1]; final conc. 1.0 γ/ml, ADP 10^-5 M, 2-minute incubation): 43%
- inhibition at 3 µg/mL [1, 4]: 100%
- LD50 [2]: 6500 mg/kg
- disaggregation level ([3]; final concentration 1.0 γ/ml): 25%
- disaggregation level ([3]; final concentration 3.0 γ/ml): 47%
- disaggregation level ([3]; final concentration 6.0 γ/ml): 64%

Compound: CCCCCCn1sc2cc(Cl)ccc2c1=O [BIT (R=n-C6H13) (X=Cl), 6-chloro-2-n-hexyl-1,2-benzoisothiazolin-3-one]
- inhibition at 3 µg/mL [1, 4]: 100%

Compound: CCCCCCCCCCn1sc2cc(Cl)ccc2c1=O [BIT (R=n-C10H21) (X=Cl), 6-chloro-2-n-decyl-1,2-benzoiso-thiazolin-3-one]
- inhibition at 3 µg/mL [1, 4]: 100%
